Reference: BigSolDB 2.1

Cc1ccc(NC(=O)/C(=C/Cl)Sc2ccccc2)cc1
solubility (mole fraction)
Conditions	278.15 K	283.15 K	288.15 K	293.15 K	298.15 K	303.15 K	308.15 K	313.15 K	318.15 K
in 1,2-dichloroethane	0.0353	0.0413	0.0512	0.0615	0.0773	0.0942	0.115	0.136	0.161
in 2-butanone	0.0308	0.0365	0.0436	0.0529	0.0632	0.0772	0.0943	0.112	0.135
in 2-methyltetrahydrofuran	0.0393	0.0466	0.0507	0.0604	0.0702	0.0858	0.103	0.126	0.145
in MTBE	0.0068	0.0075	0.0092	0.0104	0.0132	0.0153	0.0187	0.0223	0.0277
in THF	0.0849	0.0953	0.105	0.118	0.133	0.154	0.171	0.195	0.218
in acetone	0.0216	0.0258	0.0296	0.0364	0.0452	0.0564	0.0707	0.0889	0.114
in acetonitrile	0.0043	0.0051	0.0065	0.0086	0.0115	0.0148	0.02	0.0267	0.0362
in ethyl acetate	0.0187	0.0233	0.0271	0.0331	0.0409	0.0522	0.0657	0.0794	0.0978
in isopropanol	0.0019	0.0021	0.0025	0.0031	0.0041	0.0048	0.0063	0.0075	0.0093
in methyl acetate	0.0153	0.0195	0.0228	0.028	0.0352	0.0471	0.0572	0.0693	0.0797
in tert-amyl alcohol	0.0013	0.0015	0.0018	0.0026	0.0034	0.005	0.0068	0.0096	0.0129
in toluene	0.014	0.0165	0.0202	0.0266	0.0318	0.0443	0.0551	0.069	0.0876
